How the values were obtained:
[1] = tested on: reversible ω-transaminase (SEQ ID NO: 7); settings: Kaulmann et al., 2007; cited from earlier work
[2] = tested on: reversible 4-aminobubyrate:2-oxoglutarate transaminase; settings: Yonaha et al., Eur. J. Biochem., 1985; cited from earlier work
[3] = tested on: reversible 5-aminovalerate transaminase; settings: Barker et al., J. Biol. Chem., 1987; cited from earlier work
[4] = tested on: ω-transaminase of SEQ ID NO: 9; experiment: ω-transaminase activity, glutarate semialdehyde to 5-aminopentanoate (reverse direction); type: biochemical, Pseudomonas syringae; settings: cell free extract; 10 mM glutarate semialdehyde, 10 mM L-alanine, pH 7.5, 25° C., 4 h; RP-HPLC; FIG. 9
Experimental: A sequence encoding an N-terminal His-tag was added to the genes from Chromobacterium violaceum and Pseudomonas syringae encoding the ω-transaminases of SEQ ID NOs: 7 and 9, respectively (see FIG. 7) such that N-terminal HIS tagged ω-transaminases could be produced. Each of the resulting modified genes was cloned into a pET21a expression vector under control of the T7 promoter and each expression vector was transformed into a BL21[DE3] E. coli host. The resulting recombinant E. coli strains were cultivated at 37° C. in a 250 mL shake flask culture containing 50 mL LB media and antibiotic selection pressure, with shaking at 230 rpm. Each culture was induced overnight at 16° C. using 1 mM IPTG.
The pellet from each induced shake flask culture was harvested via centrifugation. Each pellet was resuspended and lysed via sonication. The cell debris was separated from the supernatant via centrifugation and the cell free extract was used immediately in enzyme activity assays.
Enzyme activity in the reverse direction (i.e., glutarate semialdehyde to 5-aminopentanoate) were performed in a buffer composed of a final concentration of 50 mM HEPES buffer (pH=7.5), 10 mM glutarate semialdehyde, 10 mM L-alanine and 100 μM pyridoxyl 5′ phosphate. […] The formation of pyruvate was quantified via RP-HPLC.

[5] = tested on: carboxylate reductase of SEQ ID NO 6; experiment: carboxylate reductase activity, glutarate semialdehyde to pentanedial; type: biochemical, Segniliparus rotundus; settings: SEQ ID NO 6, enhanced by sfp gene product; 2 mM glutarate semialdehyde, 1 mM ATP, 1 mM NADPH, pH 7.5, room temperature, 20 min; FIG. 15
Experimental: The N-terminal His-tagged carboxylate reductase of SEQ ID NO 6 (see Example 2 and FIG. 7) was assayed using glutarate semialdehyde as substrate. The enzyme activity assay was performed in triplicate in a buffer composed of a final concentration of 50 mM HEPES buffer (pH=7.5), 2 mM glutarate semialdehyde, 10 mM MgCl2, 1 mM ATP and 1 mM NADPH. The enzyme activity assay reaction was initiated by adding purified carboxylate reductase and phosphopantetheine transferase or the empty vector control to the assay buffer containing the glutarate semialdehyde and then incubated at room temperature for 20 min. The consumption of NADPH was monitored by absorbance at 340 nm.

diamine transaminase = settings: Kim, 1964; cited from earlier work
[6] = target: T1, carboxylate reductase of SEQ ID NO: 1 (Mycobacterium marinum, UniProt B2HN69); experiment: carboxylate reductase activity, 5-hydroxypentanoate to 5-hydroxypentanal; type: biochemical; settings: SEQ ID NO 1, enhanced by sfp gene product; 1 mM ATP, 1 mM NADPH, pH 7.5, room temperature, 20 min; FIG. 12
T1 construct: His-tag (N); made in house; host or cells: E. coli BL21[DE3], pET Duet
Experimental: (§1) A sequence encoding a His-tag was added to the genes from Mycobacterium marinum, Mycobacterium smegmatis, Segniliparus rugosus, Mycobacterium massiliense, and Segniliparus rotundus that encode the carboxylate reductases of SEQ ID NOs: 1, 2, 3, 5 and 6, respectively (see FIG. 7) such that N-terminal HIS tagged carboxylate reductases could be produced. Each of the modified genes was cloned into a pET Duet expression vector alongside a sfp gene encoding a His-tagged phosphopantetheine transferase from Bacillus subtilis, both under control of the T7 promoter.
(§2) Each expression vector was transformed into a BL21[DE3] E. coli host and the resulting recombinant E. coli strains were cultivated at 37° C. in a 250 mL shake flask culture containing 50 mL LB media and antibiotic selection pressure, with shaking at 230 rpm. Each culture was induced overnight at 37° C. using an auto-induction media.
(§3) The pellet from each induced shake flask culture was harvested via centrifugation. Each pellet was resuspended and lysed via sonication. […]
(§4) Enzyme activity (i.e., 5-hydroxypentanoate to 5-hydroxypentanal) assays were performed in triplicate in a buffer composed of a final concentration of 50 mM HEPES buffer (pH=7.5), 2 mM 5-hydroxypentanal, 10 mM MgCl2, 1 mM ATP, and 1 mM NADPH. […] The consumption of NADPH was monitored by absorbance at 340 nm.

[7] = tested on: carboxylate reductase of SEQ ID NO: 2; experiment: as above; type: biochemical, Mycobacterium smegmatis; settings: SEQ ID NO 2, enhanced by sfp gene product; 1 mM ATP, 1 mM NADPH, pH 7.5, room temperature, 20 min; FIG. 12
Experimental: as §1, §2, §3, §4

[8] = tested on: carboxylate reductase of SEQ ID NO: 6; experiment: as above; type: biochemical, Segniliparus rotundus; settings: SEQ ID NO 6, enhanced by sfp gene product; 1 mM ATP, 1 mM NADPH, pH 7.5, room temperature, 20 min; FIG. 12
Experimental: as §1, §2, §3, §4

[9] = tested on: carboxylate reductase of SEQ ID NO: 3; experiment: as above; type: biochemical, Segniliparus rugosus; settings: SEQ ID NO 3, enhanced by sfp gene product; 1 mM ATP, 1 mM NADPH, pH 7.5, room temperature, 20 min; FIG. 12
Experimental: as §1, §2, §3, §4

[10] = tested on: carboxylate reductase of SEQ ID NO: 5; experiment: as above; type: biochemical, Mycobacterium massiliense; settings: SEQ ID NO 5, enhanced by sfp gene product; 1 mM ATP, 1 mM NADPH, pH 7.5, room temperature, 20 min; FIG. 12
Experimental: as §1, §2, §3, §4

T1 sequence (B2HN69 whole entry): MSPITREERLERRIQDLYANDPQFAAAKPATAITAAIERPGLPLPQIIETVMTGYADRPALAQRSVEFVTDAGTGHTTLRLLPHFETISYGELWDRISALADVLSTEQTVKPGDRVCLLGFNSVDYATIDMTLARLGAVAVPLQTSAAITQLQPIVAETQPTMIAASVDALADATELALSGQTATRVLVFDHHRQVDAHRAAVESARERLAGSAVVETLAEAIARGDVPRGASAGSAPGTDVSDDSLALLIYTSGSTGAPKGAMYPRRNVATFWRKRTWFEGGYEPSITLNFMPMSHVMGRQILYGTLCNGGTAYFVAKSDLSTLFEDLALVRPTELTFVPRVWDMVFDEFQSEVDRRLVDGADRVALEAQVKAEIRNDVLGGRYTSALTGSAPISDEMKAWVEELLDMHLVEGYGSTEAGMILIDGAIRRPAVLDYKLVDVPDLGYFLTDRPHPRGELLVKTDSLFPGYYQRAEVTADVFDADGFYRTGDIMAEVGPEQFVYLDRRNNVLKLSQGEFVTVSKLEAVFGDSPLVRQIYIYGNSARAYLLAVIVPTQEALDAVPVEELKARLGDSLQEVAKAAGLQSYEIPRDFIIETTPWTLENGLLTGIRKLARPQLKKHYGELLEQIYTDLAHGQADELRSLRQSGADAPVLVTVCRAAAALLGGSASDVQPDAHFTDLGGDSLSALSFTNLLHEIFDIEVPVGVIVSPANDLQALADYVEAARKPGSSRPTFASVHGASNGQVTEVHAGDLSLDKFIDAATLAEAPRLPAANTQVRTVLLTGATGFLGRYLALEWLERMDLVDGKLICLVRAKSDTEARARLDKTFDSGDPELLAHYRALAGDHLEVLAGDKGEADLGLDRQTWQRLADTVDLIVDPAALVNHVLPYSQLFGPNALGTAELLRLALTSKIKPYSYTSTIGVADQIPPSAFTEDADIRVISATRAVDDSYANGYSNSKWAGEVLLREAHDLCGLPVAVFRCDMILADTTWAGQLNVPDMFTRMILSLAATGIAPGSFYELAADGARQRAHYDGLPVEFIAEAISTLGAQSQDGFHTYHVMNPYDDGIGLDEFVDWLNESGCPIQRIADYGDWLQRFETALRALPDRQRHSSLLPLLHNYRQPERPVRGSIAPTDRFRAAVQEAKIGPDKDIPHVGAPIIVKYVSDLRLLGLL

**Q.** For `NCCCCCC(=O)O` [6-aminohexanoate], which “activity accepting as amino donor” value [1] is on record?
**A.** Its value is “demonstrated analogous activity”.

**Q.** What about the “activity for the conversion to adipate semialdehyde” value [2] of the same compound?
**A.** Its value is “demonstrated analogous activity”.

**Q.** What about the “activity for the conversion to adipate semialdehyde” value [3] of the same compound?
**A.** The value was “demonstrated analogous activity”.

**Q.** For `O=CCCCC(=O)O` [glutarate semialdehyde], which “acceptance as substrate (conversion of L-alanine to pyruvate) vs empty vector control” value [4] is on record?
**A.** Its value is “accepted glutarate semialdehyde as substrate”.

**Q.** And the “acceptance as substrate (consumption of NADPH, absorbance at 340 nm) vs empty vector control” value [5]?
**A.** The value was “accepted glutarate semialdehyde as substrate”.

**Q.** Which diamine transaminase activity (diamine transaminase) does the source give for `NCCCCCCCN` [1,7 diaminoheptane] here?
**A.** The diamine transaminase activity was “demonstrated activity”.

**Q.** What does the source list for `O=C(O)CCCCO` [5-hydroxypentanoate]?
**A.** acceptance as substrate (consumption of NADPH, absorbance at 340 nm) vs empty vector control [6]: accepted 5-hydroxypentanoate as substrate; acceptance as substrate (consumption of NADPH, absorbance at 340 nm) vs empty vector control [7]: accepted 5-hydroxypentanoate as substrate; acceptance as substrate (consumption of NADPH, absorbance at 340 nm) vs empty vector control [8]: accepted 5-hydroxypentanoate as substrate; acceptance as substrate (consumption of NADPH, absorbance at 340 nm) vs empty vector control [9]: accepted 5-hydroxypentanoate as substrate; acceptance as substrate (consumption of NADPH, absorbance at 340 nm) vs empty vector control [10]: accepted 5-hydroxypentanoate as substrate

From patent US20150111262A1, “METHODS AND MATERIALS FOR PRODUCING FIVE CARBON BUILDING BLOCKS FROM PROLINE” (INVISTA North America S.á r.l., priority 2013, published 2015)
